Measurements taken from patent US10760110B2, “Antibiotic testing and screening system” (priority 2017, dated 2020).
Read-outs that look alike come from different tables or passages of the source.

What was measured:
[1] = system: K. pneumoniae NVT1001 strains with QnrB, QnrS or AAC(6′)-Ib-cr plasmids; assay: Etest MIC of quinolones, GyrA/ParC mutations, ΔramR and/or QnrB, QnrS or AAC(6′)-Ib-cr (Table 12); format: cell-based; conditions: Klebsiella pneumoniae
Procedure: DNA fragments of the resistance genes along with their flanking regions were amplified from clinical plasmids via PCR with specific primer pairs. The resulting PCR fragments were digested and then cloned into the plasmid pACYC177 or pACYC184. The resulting plasmids were then transformed into K. pneumoniae strain NVT1001 via electroporation. The recombinant bacteria were plated onto LB agar plates containing kanamycin (50 mg/L) or chloramphenicol (50 mg/L), and the presence of the cloned gene was confirmed via PCR and DNA sequencing.
(§1) The MICs of antibiotics were determined using the Etest (Biodisk AB, Sweden) according to the manufacturer's instructions. The MICs from the Etest, which fall between standard two-fold dilutions, were rounded up to the next highest two-fold value. The MICs of ceftazidime and cefotaxime against K. pneumoniae NVT1001 harbouring the pACYC177 plasmid with blaOXA-48 were further determined using a broth microdilution test according to the recommendations of the CLSI,^25 and the results were interpreted according to the breakpoints established by the CLSI in 2017.^25 Meanwhile, due to the lack of CLSI breakpoints in 2016 and 2017, the results for cephalothin were interpreted according to the breakpoints established by the CLSI in 2015,^26 and the results for moxifloxacin were interpreted according to the breakpoints established by the EUCAST in 2017.^27

[2] = system: K. pneumoniae NVT1001 and its GyrA/ParC and ΔramR mutants; assay: Etest MIC of quinolones, GyrA/ParC mutations and AcrAB-TolC overexpression (ΔramR) (Table 10); format: cell-based; conditions: Klebsiella pneumoniae
Text: DNA fragments of the entire gyrA and parC sequences along with their flanking regions were amplified from K. pneumoniae strain NVT1001 using PCR with specific primer pairs and then cloned into the plasmid pUT-KB. The QuikChange site-directed mutagenesis kit (Stratagene) was used to generate mutations in the gyrA and parC genes in the plasmid using the methods described by the manufacturer. For homologous recombination, plasmids containing mutations in the gyrA or parC gene were transformed into E. coli S17-1 λpir^23 via electroporation and mobilized into K. pneumoniae strain NVT1001 via conjugation. Single-crossover strains were selected from BIND plates supplemented with kanamycin (50 mg/L), as the growth of non-K. pneumoniae contaminants is suppressed on BIND plates.^24 After the kanamycin-resistant transconjugants were selected, the insertion of plasmids was verified via PCR. After incubation in 20 mL BHI broth for 6 hours at 37° C. in the absence of kanamycin, the fully grown cultures were spread onto LB agar plates supplemented with 10% sucrose. After the double crossover occurred, the sucrose-resistant and kanamycin-susceptible colonies were selected, and the gene mutations were confirmed via PCR.
as §1

[3] = AAC(6′)-Ib-cr on pACYC177, S83I mutant
[4] = AAC(6′)-Ib-cr on pACYC177, S83I/D87N/S80I mutant
[5] = AAC(6′)-Ib-cr on pACYC177, S83I/S80I mutant
[6] = AAC(6′)-Ib-cr on pACYC177, WT (NVT1001), read-out: MIC
[7] = AAC(6′)-Ib-cr on pACYC177, ΔramR mutant
[8] = AAC(6′)-Ib-cr on pACYC177, ΔramR/S83I mutant
[9] = AAC(6′)-Ib-cr on pACYC177, ΔramR/S83I/D87N/S80I mutant
[10] = AAC(6′)-Ib-cr on pACYC177, ΔramR/S83I/S80I mutant
[11] = QnrB on pACYC177, S83I/D87N/S80I mutant
[12] = QnrB on pACYC177, S83I/S80I mutant
[13] = QnrB on pACYC177, WT (NVT1001), read-out: MIC
[14] = QnrB on pACYC177, ΔramR/S83I mutant
[15] = QnrB on pACYC177, ΔramR/S83I/D87N/S80I mutant
[16] = QnrB on pACYC177, ΔramR/S83I/S80I mutant
[17] = QnrS on pACYC177, S83I/D87N/S80I mutant
[18] = QnrS on pACYC177, S83I/S80I mutant
[19] = QnrS on pACYC177, WT (NVT1001), read-out: MIC
[20] = QnrS on pACYC177, ΔramR/S83I mutant
[21] = QnrS on pACYC177, ΔramR/S83I/D87N/S80I mutant
[22] = QnrS on pACYC177, ΔramR/S83I/S80I mutant
[23] = no supplemental plasmid, S83I mutant
[24] = no supplemental plasmid, S83I/D87N/S80I mutant
[25] = no supplemental plasmid, S83I/S80I mutant
[26] = no supplemental plasmid, WT (NVT1001), read-out: MIC
[27] = no supplemental plasmid, ΔramR mutant
[28] = no supplemental plasmid, ΔramR/S83I mutant
[29] = no supplemental plasmid, ΔramR/S83I/D87N/S80I mutant
[30] = no supplemental plasmid, ΔramR/S83I/S80I mutant

In the case of `CCn1cc(C(=O)O)c(=O)c2ccc(C)nc21` [Nalidixic acid, nalidixic acid], the MIC [1, 3] is reported as > 256 µg/mL, the MIC [1, 4] is reported as > 256 µg/mL and the MIC [1, 5] is reported as > 256 µg/mL. For the same compound, the MIC [1, 6] was 4 µg/mL, the MIC [1, 7] was 64 µg/mL and the MIC [1, 8] was > 256 µg/mL. The MIC [1, 9] was > 256 µg/mL, the MIC [1, 10] was > 256 µg/mL and the MIC ([1]; QnrB on pACYC177, S83I mutant) was > 256 µg/mL. The MIC [1, 11] was > 256 µg/mL, the MIC [1, 12] was > 256 µg/mL and the MIC [1, 13] was 32 µg/mL. For the same compound, the MIC ([1]; QnrB on pACYC177, ΔramR mutant) was 256 µg/mL, the MIC [1, 14] was > 256 µg/mL and the MIC [1, 15] was > 256 µg/mL. The MIC [1, 16] was > 256 µg/mL, the MIC ([1]; QnrS on pACYC177, S83I mutant) was > 256 µg/mL and the MIC [1, 17] was > 256 µg/mL. The MIC [1, 18] was > 256 µg/mL, the MIC [1, 19] was 16 µg/mL and the MIC ([1]; QnrS on pACYC177, ΔramR mutant) was 64 µg/mL. For the same compound, the MIC [1, 20] was > 256 µg/mL, the MIC [1, 21] was > 256 µg/mL and the MIC [1, 22] was > 256 µg/mL. The MIC [1, 23] was > 256 µg/mL, the MIC [1, 24] was > 256 µg/mL and the MIC [1, 25] was > 256 µg/mL. The MIC [1, 26] was 4 µg/mL, the MIC [1, 27] was 32 µg/mL and the MIC [1, 28] was > 256 µg/mL. The MIC [1, 29] was > 256 µg/mL, the MIC [1, 30] was > 256 µg/mL and the MIC ([2]; D87N mutant (GyrA D87N)) was > 256 µg/mL. The MIC ([2]; D87N/S80I mutant) was > 256 µg/mL, the MIC ([2]; NVT1001, read-out: MIC) was 4 µg/mL and the MIC ([2]; S80I mutant (ParC S80I)) was 8 µg/mL. The MIC ([2]; S83F mutant (GyrA S83F)) was > 256 µg/mL, the MIC ([2]; S83F/D87N mutant) was > 256 µg/mL and the MIC ([2]; S83F/D87N/S80I mutant) was > 256 µg/mL. The MIC ([2]; S83F/S80I mutant) was > 256 µg/mL, the MIC ([2]; S83I mutant (GyrA S83I)) was > 256 µg/mL and the MIC ([2]; S83I/D87N mutant) was > 256 µg/mL. For the same compound, the MIC ([2]; S83I/D87N/S80I mutant) was > 256 µg/mL, the MIC ([2]; S83I/S80I mutant) was > 256 µg/mL and the MIC ([2]; S83L mutant (GyrA S83L)) was > 256 µg/mL. For the same compound, the MIC ([2]; S83L/D87N mutant) was > 256 µg/mL, the MIC ([2]; S83L/D87N/S80I mutant) was > 256 µg/mL and the MIC ([2]; S83L/S80I mutant) was > 256 µg/mL. The MIC ([2]; S83Y mutant (GyrA S83Y)) was > 256 µg/mL, the MIC ([2]; S83Y/D87N mutant) was > 256 µg/mL and the MIC ([2]; S83Y/D87N/S80I mutant) was > 256 µg/mL. The MIC ([2]; S83Y/S80I mutant) was > 256 µg/mL, the MIC ([2]; ΔramR mutant) was 32 µg/mL and the MIC ([2]; ΔramR/S83I mutant) was > 256 µg/mL. For the same compound, the MIC ([2]; ΔramR/S83I/D87N/S80I mutant) was > 256 µg/mL and the MIC ([2]; ΔramR/S83I/S801 mutant) was > 256 µg/mL.
`CCn1cc(C(=O)O)c(=O)c2cc(F)c(N3CCNCC3)cc21` [Norfloxacin, norfloxacin] was tested, and the MIC [1, 3] was 8 µg/mL, the MIC [1, 4] was > 256 µg/mL and the MIC [1, 5] was 128 µg/mL. It also gave an MIC [1, 6] of 1 µg/mL, an MIC [1, 7] of 8 µg/mL and an MIC [1, 8] of 128 µg/mL. For the same compound, the MIC [1, 9] was > 256 µg/mL, the MIC [1, 10] was > 256 µg/mL and the MIC ([1]; QnrB on pACYC177, S83I mutant) was 8 µg/mL. The MIC [1, 11] was > 256 µg/mL, the MIC [1, 12] was > 256 µg/mL and the MIC [1, 13] was 2 µg/mL. The MIC ([1]; QnrB on pACYC177, ΔramR mutant) was 16 µg/mL, the MIC [1, 14] was 64 µg/mL and the MIC [1, 15] was > 256 µg/mL. The MIC [1, 16] was > 256 µg/mL, the MIC ([1]; QnrS on pACYC177, S83I mutant) was 8 µg/mL and the MIC [1, 17] was 128 µg/mL. For the same compound, the MIC [1, 18] was 64 µg/mL, the MIC [1, 19] was 2 µg/mL and the MIC ([1]; QnrS on pACYC177, ΔramR mutant) was 32 µg/mL. The MIC [1, 20] was 64 µg/mL, the MIC [1, 21] was > 256 µg/mL and the MIC [1, 22] was > 256 µg/mL. The MIC [1, 23] was 2 µg/mL, the MIC [1, 24] was 64 µg/mL and the MIC [1, 25] was 16 µg/mL. For the same compound, the MIC [1, 26] was 0.25 µg/mL, the MIC [1, 27] was 2 µg/mL and the MIC [1, 28] was 8 µg/mL. The MIC [1, 29] was > 256 µg/mL, the MIC [1, 30] was 128 µg/mL and the MIC ([2]; D87N mutant (GyrA D87N)) was 2 µg/mL. For the same compound, the MIC ([2]; D87N/S80I mutant) was 2 µg/mL, the MIC ([2]; NVT1001, read-out: MIC) was 0.25 µg/mL and the MIC ([2]; S80I mutant (ParC S80I)) was 0.25 µg/mL. The MIC ([2]; S83F mutant (GyrA S83F)) was 2 µg/mL, the MIC ([2]; S83F/D87N mutant) was 2 µg/mL and the MIC ([2]; S83F/D87N/S80I mutant) was 32 µg/mL. For the same compound, the MIC ([2]; S83F/S80I mutant) was 8 µg/mL, the MIC ([2]; S83I mutant (GyrA S83I)) was 2 µg/mL and the MIC ([2]; S83I/D87N mutant) was 2 µg/mL. The MIC ([2]; S83I/D87N/S80I mutant) was 64 µg/mL, the MIC ([2]; S83I/S80I mutant) was 16 µg/mL and the MIC ([2]; S83L mutant (GyrA S83L)) was 2 µg/mL. The MIC ([2]; S83L/D87N mutant) was 2 µg/mL, the MIC ([2]; S83L/D87N/S80I mutant) was 64 µg/mL and the MIC ([2]; S83L/S80I mutant) was 8 µg/mL. For the same compound, the MIC ([2]; S83Y mutant (GyrA S83Y)) was 2 µg/mL, the MIC ([2]; S83Y/D87N mutant) was 2 µg/mL and the MIC ([2]; S83Y/D87N/S80I mutant) was 32 µg/mL. The MIC ([2]; S83Y/S80I mutant) was 8 µg/mL, the MIC ([2]; ΔramR mutant) was 2 µg/mL and the MIC ([2]; ΔramR/S83I mutant) was 8 µg/mL. For the same compound, the MIC ([2]; ΔramR/S83I/D87N/S80I mutant) was > 256 µg/mL and the MIC ([2]; ΔramR/S83I/S801 mutant) was 128 µg/mL.
